Where two headings read alike, the source gives them in different places.
Experiments:
[1] = test system: panel of 55 breast cancer cell lines; experiment: Cell growth inhibition assay (Cell Titer Glo, 72 h, 9 doses; GI50, TGI, LC50); format: cell-based, human; conditions: Homo sapiens, read-out: GI50 (converted)
[2] = test system: luminal, basal, claudin-low and ERBB2AMP breast cancer cell lines; experiment: Associations of clinically relevant subtypes and response (non-parametric ANOVA or t-test on GI50 ranks); format: cell-based, human
Procedure, shortened: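 Significance was set at FDR p<0.20 after combining p-values across three test sets. Subtype–response associations came from rank-based non-parametric ANOVA or t-tests on GI50. For three-class comparisons, post-hoc tests of each group against the rest identified the most sensitive group, with FDR correction.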

COc1cc([C@@H]2c3cc4c(cc3[C@@H](O[C@@H]3O[C@@H]5CO[C@@H](C)O[C@H]5[C@H](O)[C@H]3O)[C@H]3COC(=O)[C@H]23)OCO4)cc(OC)c1O [Etoposide]
GI50 ([1]; 600MPE cell line, censored GI50 values): 9.77 µM | GI50 ([1]; AU565, AU565 cell line, censored GI50 values): 0.676 µM | GI50 ([1]; AU565, cell line AU565): 0.676 µM | GI50 ([1]; BT-20, BT20 cell line, censored GI50 values): 3.31 µM | GI50 ([1]; BT-20, cell line BT20): 3.31 µM | GI50 ([1]; BT-474, BT474 cell line, censored GI50 values): 19.1 µM | GI50 ([1]; BT-474, cell line BT474): 19.1 µM | GI50 ([1]; BT-483, BT483 cell line, censored GI50 values): 4.27 µM | GI50 ([1]; BT-483, cell line BT483): 4.27 µM | GI50 ([1]; BT-549, BT549 cell line, censored GI50 values): 1.38 µM | GI50 ([1]; BT-549, cell line BT549): 1.38 µM | GI50 ([1]; CAMA-1, CAMA1 cell line, censored GI50 values): 5.01 µM | GI50 ([1]; CAMA-1, cell line CAMA1): 5.01 µM | GI50 ([1]; HCC38, HCC38 cell line, censored GI50 values): 0.295 µM | GI50 ([1]; HCC38, cell line HCC38): 0.295 µM | GI50 ([1]; HCC70, HCC70 cell line, censored GI50 values): 12.9 µM | GI50 ([1]; HCC70, cell line HCC70): 12.9 µM | GI50 ([1]; HCC202, HCC202 cell line, censored GI50 values): 0.933 µM | GI50 ([1]; HCC202, cell line HCC202): 0.933 µM | GI50 ([1]; HCC1143, HCC1143 cell line, censored GI50 values): 5.13 µM | GI50 ([1]; HCC1143, cell line HCC1143): 5.13 µM | GI50 ([1]; HCC1187, HCC1187 cell line, censored GI50 values): 0.692 µM | GI50 ([1]; HCC1187, cell line HCC1187): 0.692 µM | GI50 ([1]; HCC1395, HCC1395 cell line, censored GI50 values): 3.09 µM | GI50 ([1]; HCC1395, cell line HCC1395): 3.09 µM | GI50 ([1]; HCC1419, HCC1419 cell line, censored GI50 values): 70.8 µM | GI50 ([1]; HCC1419, cell line HCC1419): 70.8 µM | GI50 ([1]; HCC1428, HCC1428 cell line, censored GI50 values): 34.7 µM | GI50 ([1]; HCC1428, cell line HCC1428): 34.7 µM | GI50 ([1]; HCC1500, HCC1500 cell line, censored GI50 values): 1.41 µM | GI50 ([1]; HCC1500, cell line HCC1500): 1.41 µM | GI50 ([1]; HCC1806, HCC1806 cell line, censored GI50 values): 3.09 µM | GI50 ([1]; HCC1806, cell line HCC1806): 3.09 µM | GI50 ([1]; HCC1937, HCC1937 cell line, censored GI50 values): 4.57 µM | GI50 ([1]; HCC1937, cell line HCC1937): 4.57 µM | GI50 ([1]; HCC1954, HCC1954 cell line, censored GI50 values): 1 µM | GI50 ([1]; HCC1954, cell line HCC1954): 1 µM | GI50 ([1]; HCC2185 cell line, censored GI50 values): 7.76 µM | GI50 ([1]; HCC3153 cell line, censored GI50 values): 2.95 µM | GI50 ([1]; MCF7, MCF7 cell line, censored GI50 values): 11.2 µM | GI50 ([1]; MCF7, cell line MCF7): 11.2 µM | GI50 ([1]; MDA-MB-134-VI, MDAMB134VI cell line, censored GI50 values): 2.45 µM | GI50 ([1]; MDA-MB-157, MDAMB157 cell line, censored GI50 values): 0.955 µM | GI50 ([1]; MDA-MB-157, cell line MDAMB157): 0.955 µM | GI50 ([1]; MDA-MB-175-VII, MDAMB175VII cell line, censored GI50 values): 72.4 µM | GI50 ([1]; MDA-MB-231, MDAMB231 cell line, censored GI50 values): 2.04 µM | GI50 ([1]; MDA-MB-231, cell line MDAMB231): 2.04 µM | GI50 ([1]; MDA-MB-361, MDAMB361 cell line, censored GI50 values): 14.1 µM | GI50 ([1]; MDA-MB-361, cell line MDAMB361): 14.1 µM | GI50 ([1]; MDA-MB-415, MDAMB415 cell line, censored GI50 values): 13.8 µM | GI50 ([1]; MDA-MB-415, cell line MDAMB415): 13.8 µM | GI50 ([1]; MDA-MB-436, MDAMB436 cell line, censored GI50 values): 1 µM | GI50 ([1]; MDA-MB-436, cell line MDAMB436): 1 µM | GI50 ([1]; MDA-MB-453, MDAMB453 cell line, censored GI50 values): 5.01 µM | GI50 ([1]; MDA-MB-453, cell line MDAMB453): 5.01 µM | GI50 ([1]; MDA-MB-468, MDAMB468 cell line, censored GI50 values): 2.57 µM | GI50 ([1]; MDA-MB-468, cell line MDAMB468): 2.57 µM | GI50 ([1]; SK-BR-3, SKBR3 cell line, censored GI50 values): 1.2 µM | GI50 ([1]; SK-BR-3, cell line SKBR3): 1.2 µM | GI50 ([1]; SUM52PE, SUM52PE cell line, censored GI50 values): 2.57 µM | GI50 ([1]; SUM52PE, cell line SUM52PE): 2.57 µM | GI50 ([1]; SUM149PT, SUM149PT cell line, censored GI50 values): 2.63 µM | GI50 ([1]; SUM149PT, cell line SUM149PT): 2.63 µM | GI50 ([1]; SUM185PE, SUM185PE cell line, censored GI50 values): 4.9 µM | GI50 ([1]; SUM185PE, cell line SUM185PE): 4.9 µM | GI50 ([1]; SUM225CWN, SUM225CWN cell line, censored GI50 values): 10.2 µM | GI50 ([1]; SUM225CWN, cell line SUM225CWN): 10.2 µM | GI50 ([1]; SUM1315MO2, SUM1315MO2 cell line, censored GI50 values): 0.288 µM | GI50 ([1]; SUM-159-PT, SUM159PT cell line, censored GI50 values): 0.776 µM | GI50 ([1]; SUM-159-PT, cell line SUM159PT): 0.776 µM | GI50 ([1]; T47D, T47D cell line, censored GI50 values): 1.07 µM | GI50 ([1]; T47D, cell line T47D): 1.07 µM | GI50 ([1]; UACC-893, UACC893 cell line, censored GI50 values): 55 µM | GI50 ([1]; UACC-893, cell line UACC893): 55 µM | GI50 ([1]; ZR-75-1, ZR751 cell line, censored GI50 values): 2.09 µM | GI50 ([1]; ZR-75-1, cell line ZR751): 2.09 µM | GI50 ([1]; ZR-75B, ZR75B cell line, censored GI50 values): 0.871 µM | GI50 ([1]; ZR-75B, cell line ZR75B): 0.871 µM | GI50 ([1]; cell line 600MPE): 9.77 µM | GI50 ([1]; cell line HCC2185): 7.76 µM | GI50 ([1]; cell line HCC3153): 2.95 µM | GI50 ([1]; cell line MDAMB134V): 2.45 µM | GI50 ([1]; cell line MDAMB175V): 72.4 µM | GI50 ([1]; cell line SUM1315MO): 0.288 µM | subtype-specific response (sensitivity by transcriptional subtype) ([2]; GI50 across subtypes): preferential activity in basal and/or claudin-low cell lines | Subtype specificity ([2]; Table 6, most sensitive subtype, FDR p<0.20): Claudin-low

— US10770169B2, “Method of providing a treatment to a subject based on a dynamic pathway map” (THE REGENTS OF THE UNIVERSITY OF CALIFORNIA, priority 2010, dated 2020)
